{"source": "ChEMBL document CHEMBL5726656", "about": "“N-(phenylsulfonyl)benzamides and related compounds as BCL-2 inhibitors” (2019)", "target": "Apoptosis regulator Bcl-2 (Homo sapiens, UniProt P10415)", "sequence (P10415 whole entry)": "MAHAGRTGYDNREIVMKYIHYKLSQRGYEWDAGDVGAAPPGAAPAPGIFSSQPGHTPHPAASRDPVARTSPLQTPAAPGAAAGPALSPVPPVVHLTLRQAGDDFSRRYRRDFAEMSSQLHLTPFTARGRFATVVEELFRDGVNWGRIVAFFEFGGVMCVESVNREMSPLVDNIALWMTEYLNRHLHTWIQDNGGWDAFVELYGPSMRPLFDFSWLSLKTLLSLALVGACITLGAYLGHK", "assay": "FP values were measured as described above.", "data": [{"compound": "O=C(NS(=O)(=O)c1cc([N+](=O)[O-])c2cnn(CC3CCOCC3)c2c1)c1ccc(N2CCN(CC3=C(c4ccc(Cl)cc4)CC4(CCC4)CC3)CC2)cc1Oc1cnc2[nH]ccc2c1", "values": [{"measurement": "IC50", "result": 1.6, "unit": "nM"}]}]}
